Source: patent publication US20220324835A1 (Nurix Therapeutics, Inc., priority 2018, published 2022)

Tests used:
Assay type in all cases: cell-based
[1] = tested on: primary human total T-cells; assay: T-cell activation assessed by CD69 expression
Outline: (§1)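 Primary human T-cells (>95% CD3+, negative selection from PBMC) were pre-incubated with inhibitor (e.g. 10, 1.11, 0.123 μM; DMSO <0.1%) for 1 h at 37 °C. They were then stimulated 48 h with plate-bound OKT3 (coated at 10 μg/mL), alone or with 5 μg/mL soluble anti-CD28. Results are fold change over uninhibited, identically stimulated cells.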

[2] = tested on: primary human total T-cells; assay: T-cell activation assessed by cell proliferation (Cell Trace Violet)
Outline: as §1

[3] = tested on: primary human total T-cells; assay: T-cell activation assessed by cytokine secretion (GM-CSF, IFNγ, TNFα)
Outline: as §1

[4] = CD3/CD28 stimulation, CD4 T-cells, read-out: % CD69+ (CD4)
[5] = CD3/CD28 stimulation, CD8 T-cells, read-out: % CD69+ (CD8)
[6] = CD3 alone stimulation, CD4 T-cells, read-out: % CD69+ (CD4)
[7] = CD3 alone stimulation, CD8 T-cells, read-out: % CD69+ (CD8)
[8] = CD3/CD28 stimulation, CD4 T-cells, read-out: % CP (cell proliferation) (CD4)
[9] = CD3/CD28 stimulation, CD8 T-cells, read-out: % CP (cell proliferation) (CD8)
[10] = CD3 alone stimulation, CD8 T-cells, read-out: % CP (cell proliferation) (CD8)
[11] = CD3/CD28 stimulation, read-out: GM-CSF secretion
[12] = CD3/CD28 stimulation, read-out: IFNγ secretion
[13] = CD3/CD28 stimulation, read-out: TNFα secretion
[14] = CD3 alone stimulation, read-out: GM-CSF secretion
[15] = CD3 alone stimulation, read-out: IFNγ secretion
[16] = CD3 alone stimulation, read-out: TNFα secretion

| SMILES | fold induction at 1.11 µM [1, 4] | fold induction at 10 µM [1, 4] | fold induction at 1.11 µM [1, 5] | fold induction at 10 µM [1, 5] | fold induction at 1.11 µM [1, 6] | fold induction at 10 µM [1, 6] | fold induction at 1.11 µM [1, 7] | fold induction at 10 µM [1, 7] | fold induction at 1.11 µM [2, 8] | fold induction at 10 µM [2, 8] | fold induction at 1.11 µM [2, 9] | fold induction at 10 µM [2, 9] | fold induction at 1.11 µM [2, 10] | fold induction at 10 µM [2, 10] | fold induction at 1.11 µM [3, 11] | fold induction at 1.11 µM [3, 12] | fold induction at 1.11 µM [3, 13] | fold induction at 10 µM [3, 11] | fold induction at 10 µM [3, 12] | fold induction at 10 µM [3, 13] | also measured |
| --- | --- | --- | --- | --- | --- | --- | --- | --- | --- | --- | --- | --- | --- | --- | --- | --- | --- | --- | --- | --- | --- |
| Cn1cnnc1C(F)(F)[C@](C)(F)c1cccc(N2Cc3c(cc(CN4CC[C@@H](C#N)C4)cc3C(F)(F)F)C2=O)c1 [Compound 455, (R)-1-((3-oxo-2-(3-((R)-1,1,2-trifluoro-1-(4-methyl-4H-1,2,4-triazol-3-yl)propan-2-yl)phenyl)-7-(trifluoromethyl)isoindolin-5-yl)methyl)pyrrolidine-3-carbonitrile] | 1.2 to 1.4 | 1.4 to 1.6 | 1.2 to 1.4 | 1.2 to 1.4 | 1.4 to 1.6 | > 1.6 | 1.2 to 1.4 | 1.4 to 1.6 | > 4 | > 4 | 3.01 to 4 | > 4 | > 4 | > 4 | 2.01 to 4 | > 4 | 2.01 to 4 | > 4 | > 4 | 2.01 to 4 | fold induction at 1.11 µM [3, 14]: 1.51 to 2; fold induction at 1.11 µM [3, 15]: 2.01 to 3; fold induction at 1.11 µM [3, 16]: ≤ 1.5; fold induction at 10 µM [3, 14]: 2.01 to 4; fold induction at 10 µM [3, 15]: 3.01 to 4; fold induction at 10 µM [3, 16]: 2.01 to 4 |
| C[C@H](Cc1nncn1C)c1cccc(NC(=O)c2cc3cc(N4CCNCC4)ccc3cn2)c1 [Compound 472, N-{3-[(2R)-1-(4-methyl-4H-1,2,4-triazol-3-yl)propan-2-yl]phenyl}-6-(piperazin-1-yl)isoquinoline-3-carboxamide] | 1.2 to 1.4 | 1.4 to 1.6 | ≤ 1.2 | 1.2 to 1.4 | 1.4 to 1.6 | 1.4 to 1.6 | ≤ 1.2 | 1.2 to 1.4 | 3.01 to 4 | > 4 | 2.01 to 3 | 2.01 to 3 | 2.01 to 3 | < 2 | 1.51 to 2 | < 2 | 1.51 to 2 | 2.01 to 4 | < 2 | 1.51 to 2 | fold induction at 1.11 µM [3, 14]: 1.51 to 2; fold induction at 1.11 µM [3, 15]: < 2; fold induction at 1.11 µM [3, 16]: ≤ 1.5; fold induction at 10 µM [3, 14]: 1.51 to 2; fold induction at 10 µM [3, 15]: < 2; fold induction at 10 µM [3, 16]: ≤ 1.5 |
